This is an account of results in patent US9278940B2, “Cyclic amines as bromodomain inhibitors” (Zenith Epigenetics Corp., priority 2012, dated 2016).

Counter-ions that a name gives are not always drawn.

In one series the target is T1, Brd4 bromodomain 1 (Homo sapiens, UniProt O60885).
T1 construct: made in house; host or cells: E. coli BL21(DE3)
Kind of series: Inhibition of tetra-acetylated histone H4 binding to BET bromodomain (TR-FRET). Set-up: key: Active: Compounds with an IC50 value less than 30 μM were deemed to be active.; Not Active: Compounds with an IC50 value less than 30 μM were deemed to be active. The note with it: Brd4 bromodomain 1, tetra-acetylated histone H4 peptide. On the procedure:
Proteins were cloned and overexpressed with a N-terminal 6×His tag, then purified by nickel affinity followed by size exclusion chromatography. Briefly, E. coli BL21(DE3) cells were transformed with a recombinant expression vector encoding N-terminally Nickel affinity tagged bromodomains from Brd2, Brd3, Brd4. Cell cultures were incubated at 37° C. with shaking to the appropriate density and induced overnight with IPTG. The supernatant of lysed cells was loaded onto Ni-IDA column for purification. Eluted protein is pooled, concentrated and further purified by size exclusion chromatography. Fractions representing monomeric protein were pooled, concentrated, aliquoted, and frozen at −80° C. for use in subsequent experiments.
Binding of tetra-acetylated histone H4 and BET bromodomains was confirmed by a Time Resolved Fluorescence Resonance Energy Transfer (TR-FRET) method. N-terminally His-tagged bromodomains (200 nM) and biotinylated tetra-acetylated histone H4 peptide (25-50 nM, Millipore) were incubated in the presence of Europium Cryptate-labeled streptavidin (Cisbio Cat. #610SAKLB) and XL665-labeled monoclonal anti-His antibody (Cisbio Cat. #61HISXLB) in a white 96 well microtiter plate (Greiner). For inhibition assays, serially diluted test compound was added to these reactions in a 0.2% final concentration of DMSO. Final buffer concentrations were 30 mM HEPES pH 7.4, 30 mM NaCl, 0.3 mM CHAPS, 20 mM phosphate pH 7.0, 320 mM KF, 0.08% BSA). After 2 hours incubation at room temperature, the fluorescence by FRET was measured at 665 and 620 nm by a SynergyH4 plate reader (Biotek). The binding inhibitory activity was shown by a decrease in 665 nm fluorescence relative to 620 nm. IC50 values were determined from a dose response curve.
On the technique in general: In TR-FRET formats the signal depends on donor and acceptor labels being close together.

For another series, the system named is c-myc. Kind of series: Inhibition of c-myc expression (mRNA, real-time PCR) in MV4-11 cells. It is filed as cell-based. Also on record: key: Active: Compounds with an IC50 value less than 30 μM were deemed to be active.; Not Active: Compounds with an IC50 value less than 30 μM were deemed to be active. To be noted: Human AML MV4-11 cells, 3 hours. The procedure:
MV4-11 cells (2.5×10^4 cells) were plated in 96 well U-bottom plates with test compound or DMSO (0.1%), and incubated for 3 hours at 37° C. Cells were then harvested by centrifugation, lysed, and mRNA was isolated using the mRNA catcher plus kit (Invitrogen). Reverse transcription of the mRNA and duplex amplification of the c-myc and cyclophilin cDNAs was performed using the RNA Ultrasense kit (Invitrogen) and a ViiA7 real-time PCR machine (Applied Biosystems). IC50 values were determined from a dose response curve.

Another series deals with Human AML MV-4-11 cells. The experiment in a line: Inhibition of cell proliferation in MV4-11 cells. It is filed as cell-based. Set-up: key: Active: Compounds with an IC50 value less than 30 μM are deemed to be active.; Not Active: Compounds with an IC50 value less than 30 μM are deemed to be active. To be noted: 72 hours. The procedure:
MV4-11 cells: 96-well plates were seeded with 5×10^4 cells per well of exponentially growing human AML MV-4-11 (CRL-9591) cells and immediately treated with two-fold dilutions of test compounds, ranging from 30 μM to 0.2 μM. Triplicate wells were used for each concentration, as well as a media only and three DMSO control wells. The cells and compounds were incubated at 37° C., 5% CO2 for 72 hours before adding 20 μL of the CellTiter Aqueous One Solution (Promega) to each well and incubating at 37° C., 5% CO2 for an additional 3-4 hours. The absorbance was taken at 490 nm in a spectrophotometer and the percentage of proliferation relative to DMSO-treated cells was calculated after correction from the blank well. IC50 were calculated using the GraphPad Prism software.

The test system of the next series is hIL-6 mRNA. The experiment in a line: Inhibition of hIL-6 mRNA transcription in LPS-stimulated U937 macrophages. It is filed as cell-based, human. Also on record: key: Active: Compounds with an IC50 value less than 30 μM are deemed to be active.; Not Active: Compounds with an IC50 value less than 30 μM are deemed to be active. The note with it: U937 cells differentiated with PMA, 1 h pretreatment, LPS 3 h. The procedure:
In this example, hIL-6 mRNA in tissue culture cells was quantitated to measure the transcriptional inhibition of hIL-6 when treated with a compound of the present disclosure.
A human leukemic monocyte lymphoma cell line (U937) was plated (3.2×10^4 cells per well) in a 96-well plate in […] RPMI-1640 containing 10% FBS and penicillin/streptomycin, and differentiated into macrophages for 3 days in 60 ng/mL PMA ([…]) at 37° C. in 5% CO2 prior to the addition of the compound of interest. The cells were pretreated for 1 h with the test compound prior to stimulation with 1 ug/mL lipopolysaccharide from Escherichia coli. The cells were incubated at 37-C for 3 h before the cells were harvested. At time of harvest, the spent media was removed from the cells and the cells were rinsed in 200 μL PBS. Cell lysis solution (70 μL) was added the cells in each well and incubated for 5-10 min at room temperature, to allow for complete cell lysis and detachment. mRNA was then prepared using the “mRNA Catcher PLUS plate” (Invitrogen), according to the protocol supplied. After the last wash, as much wash buffer as possible was aspirated without allowing the wells to dry. Elution buffer (E3, 70 μL) was then added to each well. mRNA was then eluted by incubating the mRNA Catcher PLUS plate with Elution Buffer for 5 min at 68° C. and then immediately placing the plate on ice.
The eluted mRNA isolated was then used in a one-step quantitative real-time PCR reaction, using components of the Ultra Sense Kit together with Applied Biosystems primer-probe mixes. Real-time PCR data was analyzed, normalizing the Ct values for hIL-6 to an internal control, prior to determining the fold induction of each unknown sample, relative to the control.

In a further series the test system is hApoA-1 mRNA. The experiment in a line: Up-regulation of hApoA-1 mRNA transcription in Huh7 cells. It is filed as cell-based, human. Set-up: key: Active: Compounds with an EC170 value less than 30 μM are deemed to be active.; Not Active: Compounds with an EC170 value less than 30 μM are deemed to be active. To be noted: 48 hrs treatment, ApoA-I mRNA. The procedure: In this example, ApoA-I mRNA in tissue culture cells was quantitated to measure the transcriptional up-regulation of ApoA-I when treated with a compound of the present disclosure.
Huh7 cells ([…] per well) were plated in a 96-well plate using 100 μL DMEM per well, (Gibco DMEM supplemented with penicillin/streptomycin and 10% FBS), 24 h before the addition of the compound of interest. After 48 hrs treatment, the spent media was removed from the Huh-7 cells and placed on ice (for immediate use) or at −80° C. (for future use) with the “LDH cytotoxicity assay Kit II” from Abcam. The cells remaining in the plate were rinsed with 100 μL PBS.
Then 85 μL of cell lysis solution was added to each well and incubated for 5-10 minutes at room temperature, to allow for complete cell lysis and detachment. mRNA was then prepared using the “mRNA Catcher PLUS plate” from Life Technologies, according to the protocol supplied. After the last wash, as much wash buffer as possible was aspirated without allowing the wells to dry. Elution Buffer (E3, 80 μL) was then added to each well. mRNA was then eluted by incubating the mRNA Catcher PLUS plate with Elution Buffer for 5 minutes at 68° C., and then 1 minute at 4° C. Catcher plates with mRNA eluted were kept on ice for use or stored at −80° C.
The eluted mRNA isolated was then used in a one-step real-time PCR reaction, using components of the Ultra Sense Kit together with Life Technologies primer-probe mixes. Real-time PCR data was analyzed, using the Ct values, to determine the fold induction of each unknown sample, relative to the control (that is, relative to the control for each independent DMSO concentration).
Compounds with an EC170 value less than 30 μM are deemed to be active.

Take `COc1cc(OC)c2c(=O)[nH]c(-c3ccc(OCCNC(C)C)c(N4CCN(C(C)C)CC4)n3)nc2c1` (as salt: trifluoroacetate) [Example 12, 2-(5-(2-(Isopropylamino)ethoxy)-6-(4-isopropylpiperazin-1-yl)pyridin-2-yl)-5,7-dimethoxyquinazolin-4(3H)-one bis(trifluoroacetate)]: the melting point – broadly, the temperature of the solid-liquid transition – fell in the range of 186 to 188 °C.

In the case of `COc1cc(OC)c2c(=O)[nH]c(-c3cccc(N4CCN(C(C)C)CC4)c3)nc2c1` [Example 1, 2-(3-(4-Isopropylpiperazin-1-yl)phenyl)-5,7-dimethoxyquinazolin-4(3H)-one], the melting point lay within 251 to 253 °C. Moreover, the “FRET activity (IC50 < 30 μM)” value on Brd4 bromodomain 1 was “Active”. The “c-myc activity (IC50 < 30 μM)” value with c-myc is “Active”. Besides, the “cell proliferation activity (IC50 < 30 μM)” value (from here on “cell proliferation activity”) with Human AML MV-4-11 cells is recorded as “Not Active”. Moreover, the “IL-6 activity (IC50 < 30 μM)” value in the series on hIL-6 mRNA is given as “Active”. Moreover, the “ApoA-1 activity (EC170 < 30 μM)” value in the series with hApoA-1 mRNA was “Active”.

For `COc1cc(-c2nc3cc(OC)cc(OC)c3c(=O)[nH]2)cc(N2CCN(C(C)C)CC2)c1` [Example 2, 2-(3-(4-Isopropylpiperazin-1-yl)-5-methoxyphenyl)-5,7-dimethoxyquinazolin-4(3H)-one], the melting point was in the range of 212 to 213 °C. Moreover, the “FRET activity (IC50 < 30 μM)” value on Brd4 bromodomain 1 is recorded as “Active”. Further, in the series on c-myc, the “c-myc activity (IC50 < 30 μM)” value was “Active”. Moreover, the “cell proliferation activity” value in the series with Human AML MV-4-11 cells was “Active”. Besides, the “IL-6 activity (IC50 < 30 μM)” value in the series with hIL-6 mRNA was “Active”. Also, the “ApoA-1 activity (EC170 < 30 μM)” value in the series on hApoA-1 mRNA was “Active”.

Regarding `COCCN1CCN(c2cccc(-c3nc4cc(OC)cc(OC)c4c(=O)[nH]3)n2)CC1` [Example 3, 5,7-Dimethoxy-2-(6-(4-(2-methoxyethyl)piperazin-1yl)pyridin-2-yl)quinazolin-4(3H)-one], the melting point is 99 to 101 °C. Also, the “FRET activity (IC50 < 30 μM)” value at Brd4 bromodomain 1 is recorded as “Active”. The “c-myc activity (IC50 < 30 μM)” value in the series with c-myc is listed as “Active”. Further, in the series on Human AML MV-4-11 cells, the “cell proliferation activity” value is on record as “Active”. In addition, the “IL-6 activity (IC50 < 30 μM)” value in the series with hIL-6 mRNA is given as “Active”. In the series with hApoA-1 mRNA, the “ApoA-1 activity (EC170 < 30 μM)” value is recorded as “Active”.

The compound `COc1cc(OC)c2c(=O)[nH]c(-c3cccc(N4CCN(CCO)CC4)n3)nc2c1` [Example 4, 2-(6-(4-(2-Hydroxyethyl)piperazin-1-yl)pyridin-2-yl)-5,7-dimethoxyquinazolin-4(3H)-one] showed a melting point of 175 to 177 °C. Also, the “FRET activity (IC50 < 30 μM)” value at Brd4 bromodomain 1 is “Active”. Also, in the series on c-myc, the “c-myc activity (IC50 < 30 μM)” value is given as “Active”. For the same compound, the “cell proliferation activity” value with Human AML MV-4-11 cells is reported as “Active”. For the same compound, in the series on hIL-6 mRNA, the “IL-6 activity (IC50 < 30 μM)” value is recorded as “Active”. In the series with hApoA-1 mRNA, the “ApoA-1 activity (EC170 < 30 μM)” value is listed as “Active”.

In the case of `COc1cc(OC)c2c(=O)[nH]c(-c3cccc(N4CCN(CC(C)C)CC4)n3)nc2c1` [Example 5, 2-(6-(4-Isobutylpiperazin-1-yl)pyridin-2-yl)-5,7-dimethoxyquinazolin-4(3H)-one], the melting point fell in the range of 188 to 189 °C. In addition, the “FRET activity (IC50 < 30 μM)” value at Brd4 bromodomain 1 is on record as “Active”. Further, the “c-myc activity (IC50 < 30 μM)” value in the series on c-myc is “Active”. Also, the “cell proliferation activity” value in the series on Human AML MV-4-11 cells was “Active”. In the series on hIL-6 mRNA, the “IL-6 activity (IC50 < 30 μM)” value is “Active”. Further, the “ApoA-1 activity (EC170 < 30 μM)” value in the series on hApoA-1 mRNA is listed as “Active”.

`COC(=O)CN1CCN(c2cccc(-c3nc4cc(OC)cc(OC)c4c(=O)[nH]3)n2)CC1` [Example 7, Methyl 2-(4-(6-(5,7-dimethoxy-4-oxo-3,4-dihydroquinazolin-2-yl)pyridin-2-yl)piperazin-1-yl)acetate] yielded a melting point of 176 to 177 °C. Also, the “FRET activity (IC50 < 30 μM)” value on Brd4 bromodomain 1 is “Active”. For the same compound, the “IL-6 activity (IC50 < 30 μM)” value in the series with hIL-6 mRNA is on record as “Active”.

On to `COc1cc(OC)c2c(=O)[nH]c(-c3cccc(N4CCN(CC(=O)O)CC4)n3)nc2c1` [Example 10, 2-(4-(6-(5,7-Dimethoxy-4-oxo-3,4-dihydroquinazolin-2-yl)pyridin-2-yl)piperazin-1-yl)acetic acid], for which the melting point is 225 °C (dec.). Also, the “FRET activity (IC50 < 30 μM)” value at Brd4 bromodomain 1 is given as “Active”. Also, in the series with hIL-6 mRNA, the “IL-6 activity (IC50 < 30 μM)” value is reported as “Not Active”.

For `COc1cc(OC)c2c(=O)[nH]c(-c3cccc(N4CCN(CCC(=O)O)CC4)n3)nc2c1` [Example 11, 3-(4-(6-(5,7-Dimethoxy-4-oxo-3,4-dihydroquinazolin-2-yl)pyridin-2-yl)piperazin-1-yl)propanoic acid], the melting point is 241 °C (dec.). The “FRET activity (IC50 < 30 μM)” value on Brd4 bromodomain 1 is given as “Active”. Further, the “IL-6 activity (IC50 < 30 μM)” value with hIL-6 mRNA was “Not Active”. The “ApoA-1 activity (EC170 < 30 μM)” value in the series on hApoA-1 mRNA was “Not Active”.
